Values of other authors as cited in publication PMC7435928, “Preclinical Evaluation of NHS-Activated Gold Nanoparticles Functionalized with Bombesin or Neurotensin-Like Peptides for Targeting Colon and Prostate Tumours” (Molecules, 2020).

Target: bombesin BBRS1, BBRS2 and BBRS3 receptors
Set-up: method as in printed for the value
Conditions: target receptors BBRS1, BBRS2; not measured in this paper, ref not given; cited from earlier work

Q: For `COc1ccc(C2(CNC(=O)[C@](C)(Cc3c[nH]c4ccccc34)NC(=O)Nc3ccc([N+](=O)[O-])cc3)CCCCC2)nc1` [PD 176252], which Kd is on record?
A: 1 nM
